Laboratory results as given in the NIST ThermoML archive (doi:10.1016/j.jct.2019.05.002).

Test: xn = mol fraction of the nth substance listed
Conditions: 100 kPa, Liquid; for speed of sound: Frequency=3 MHz, Single path-length method; for mass density: Vibrating tube method

CC(O)CCO (stereo not given) [1,3-butanediol] + CCCC(=O)OCC
Conditions | mass density [kg/m3] | speed of sound [m/s]
298.15 K, x2 = 0 | 1001.87 | 1527.9
298.15 K, x2 = 0.1034 | 988.68 | 1491.1
298.15 K, x2 = 0.203 | 975.97 | 1455.7
298.15 K, x2 = 0.305 | 962.97 | 1419.4
298.15 K, x2 = 0.3835 | 952.95 | 1391.4
298.15 K, x2 = 0.4936 | 938.91 | 1352.2
298.15 K, x2 = 0.5811 | 927.76 | 1321.1
298.15 K, x2 = 0.6878 | 914.14 | 1283.1
298.15 K, x2 = 0.7997 | 899.87 | 1243.3
298.15 K, x2 = 0.8818 | 889.39 | 1214.1
303.15 K, x2 = 0 | 998.41 | 1514
303.15 K, x2 = 0.1034 | 985.01 | 1476.5
303.15 K, x2 = 0.203 | 972.1 | 1440.3
303.15 K, x2 = 0.305 | 958.89 | 1403.3
303.15 K, x2 = 0.3835 | 948.71 | 1374.8
303.15 K, x2 = 0.4936 | 934.45 | 1334.8
303.15 K, x2 = 0.5811 | 923.12 | 1303.1
303.15 K, x2 = 0.6878 | 909.28 | 1264.3
303.15 K, x2 = 0.7997 | 894.79 | 1223.7
303.15 K, x2 = 0.8818 | 884.14 | 1193.9
308.15 K, x2 = 0 | 994.94 | 1500.1
308.15 K, x2 = 0.1034 | 981.34 | 1461.9
308.15 K, x2 = 0.203 | 968.23 | 1425
308.15 K, x2 = 0.305 | 954.82 | 1387.2
308.15 K, x2 = 0.3835 | 944.49 | 1358.2
308.15 K, x2 = 0.4936 | 930.01 | 1317.4
308.15 K, x2 = 0.5811 | 918.51 | 1285.1
308.15 K, x2 = 0.6878 | 904.47 | 1245.5
308.15 K, x2 = 0.7997 | 889.75 | 1204.1
308.15 K, x2 = 0.8818 | 878.94 | 1173.7
313.15 K, x2 = 0 | 991.49 | 1486.2
313.15 K, x2 = 0.1034 | 977.69 | 1447.2
313.15 K, x2 = 0.203 | 964.38 | 1409.6
313.15 K, x2 = 0.305 | 950.77 | 1371.2
313.15 K, x2 = 0.3835 | 940.28 | 1341.5
313.15 K, x2 = 0.4936 | 925.59 | 1300
313.15 K, x2 = 0.5811 | 913.91 | 1267
313.15 K, x2 = 0.6878 | 899.66 | 1226.8
313.15 K, x2 = 0.7997 | 884.72 | 1184.6
313.15 K, x2 = 0.8818 | 873.76 | 1153.6
318.15 K, x2 = 0 | 988.02 | 1472.3
318.15 K, x2 = 0.1034 | 974.01 | 1432.6
318.15 K, x2 = 0.203 | 960.49 | 1394.3
318.15 K, x2 = 0.305 | 946.68 | 1355.1
318.15 K, x2 = 0.3835 | 936.03 | 1324.9
318.15 K, x2 = 0.4936 | 921.1 | 1282.6
318.15 K, x2 = 0.5811 | 909.25 | 1249
318.15 K, x2 = 0.6878 | 894.78 | 1208
318.15 K, x2 = 0.7997 | 879.61 | 1165
318.15 K, x2 = 0.8818 | 868.48 | 1133.4
323.15 K, x2 = 0 | 984.56 | 1458.4
323.15 K, x2 = 0.1034 | 970.34 | 1417.9
323.15 K, x2 = 0.203 | 956.63 | 1378.9
323.15 K, x2 = 0.305 | 942.62 | 1339
323.15 K, x2 = 0.3835 | 931.81 | 1308.3
323.15 K, x2 = 0.4936 | 916.67 | 1265.2
323.15 K, x2 = 0.5811 | 904.65 | 1231
323.15 K, x2 = 0.6878 | 889.97 | 1189.2
323.15 K, x2 = 0.7997 | 874.58 | 1145.4
323.15 K, x2 = 0.8818 | 863.28 | 1113.3
